This is an account of results in US20040067531A1, “Methods of modulating protein tyrosine kinase function with substituted indolinone compounds” (SUGEN, INC., priority 1997, published 2004).

Test [1] deals with EGF-induced BrdU incorporation. In words: EGF-induced BrdU incorporation assay. Type of test: cell-based. Conditions: read-out: EGF-Induced BrdU Incorp. IC50. The procedure:
(§1) PDGF-, FGF-, and EGF-Induced BRDU Incorporation Assay
(§2) 1. Cells were seeded at 8000 cells/well in DMEM, 10% CS, 2 mM Gln in a 96 well plate. Cells were incubated overnight at 37° C. in 5% CO2.
(§3) 2. After 24 hours, the cells were washed with PBS, and then were serum starved in serum free medium (0% CS DMEM with 0.1% BSA) for 24 hours.
(§4) 3. On day 3, ligand (PDGF=3.8 nM, prepared in DMEM with 0.1% BSA) and test compounds were added to the cells simultaneously. The negative control wells received serum free DMEM with 0.1% BSA only; the positive control cells received the ligand (PDGF) but no test compound. Test compounds were prepared in serum free DMEM with ligand in a 96 well plate, and serially diluted for 7 test concentrations.
(§5) 4. After 20 hours of ligand activation, diluted BrdU labeling reagent (1:100 in DMEM, 0.1% BSA) was added and the cells were incubated with BrdU (final concentration=10 μM) for 1.5 hours.
(§6) 5. After incubation with labeling reagent, the medium was removed by decanting and tapping the inverted plate on a paper towel. FixDenat solution was added (50 μL/well) and the plates were incubated at room temperature for 45 minutes on a plate shaker.
(§7) 6. The FixDenat solution was thoroughly removed by decanting and tapping the inverted plate on a paper towel. Milk was added (5% dehydrated milk in PBS, 200 μL/well) as a blocking solution and the plate was incubated for 30 minutes at room temperature on a plate shaker.
(§8) 7. The blocking solution was removed by decanting and the wells were washed once with PBS. Anti-BrdU-POD solution (1:100 dilution in PBS, 1% BSA) was added (100 μL/well), and the plate was incubated for 90 minutes at room temperature on a plate shaker.
(§9) 8. The antibody conjugate was thoroughly removed by decanting and rinsing the wells 5 times with PBS, and the space was dried by inverting and tapping on a paper towel.
(§10) 9. TMB substrate solution was added (100 μL/well) and incubated for 20 minutes at room temperature on a plate shaker until color development was sufficient for photometric detection.
(§11) 10. The absorbance of the samples were measured at 410 nm (in “dual wavelength” mode with a filter reading at 490 nm, as a reference wavelength) on a Dynatech ELISA plate reader.
(§12) The IC50 values were measured for several of the compounds of the invention. These values are depicted in Table 10.
For orientation: Dividing cells build labelled thymidine or BrdU into new DNA.

For test [2], the system named is FGF-induced BrdU incorporation. In words: FGF-induced BrdU incorporation assay. Format: cell-based. Conditions: read-out: FGF-Induced BrdU Incorp. IC50. The procedure: as §1, §2, §3, §4, §5, §6, §7, §8, §9, §10, §11, §12
Test [3] has as its system 3T3 cell line genetically engineered to express human PDGF-R. As to the kind of experiment: PDGF-induced BrdU incorporation assay. Conditions: 3T3 cells expressing human PDGF-R, read-out: PDGF-Induced BrdU Incorp. IC50. Type of test: cell-based. The procedure:
(1) PDGF: human PDGF B/B; 1276-956, Boehringer Mannheim, Germany
(8) 3T3 cell line genetically engineered to express human PDGF-R.
as §2, §3, §4, §5, §6, §7, §8, §9, §10, §11, §12

The next test has as its system HUV-EC-C cells; VEGF. In words: HUVEC-VEGF 3H-thymidine incorporation assay. Type of test: cell-based, human. The procedure:
The following protocol is used to measure a compound's activity against VEGF and aFGF, all of which are expressed by HUVEC cells.
1. […] After cells have detached from the flask, add an equal volume of assay medium and transfer to a 50 mL sterile centrifuge tube (Fisher Scientific; catalogue no. 05-539-6).
2. Wash the cells with about 35 mL assay medium in the 50 mL sterile centrifuge tube by adding the assay medium, centrifuge for 10 minutes at approximately 200×g, aspirate the supernatant, and resuspend with 35 mL D-PBS. Repeat the wash two more times with D-PBS, resuspend the cells in about 1 mL assay medium/15 cm^2 of tissue culture flask. Assay medium consists of F12K medium (Gibco BRL; catalogue no. 21127-014)+0.5% heat-inactivated fetal bovine serum. Count the cells with a Coulter Counter® (Coulter Electronics, Inc.) and add assay medium to the cells to obtain a concentration of 0.8-1.0×10^5 cells/mL.
3. Add cells to 96-well flat-bottom plates at 100 μL/well or 0.8-1.0×10^4 cells/well; incubate ˜24h at 37° C., 5% CO^2.
1. Make up two-fold drug titrations in separate 96-well plates, generally 50 μM on down to 0 μM. Use the same assay medium as mentioned in day 0, step 2 above. Titrations are made by adding […] of drug at 200 μM (4× the final well concentration) to the top well of a particular plate column. Since the stock drug concentration is usually 20 mM in DMSO, the 200 μM drug concentration contains 2% DMSO.
Therefore, diluent made up to 2% DMSO in assay medium (F12K+0.5% fetal bovine serum) is used as diluent for the drug titrations in order to dilute the drug but keep the DMSO concentration constant. Add this diluent to the remaining wells in the column at 60 μL/well. Take 60 μL from the 120 μL of 200 μM drug dilution in the top well of the column and mix with the 60 μL in the second well of the column. Take 60 μL from this well and mix with the 60 μL in the third well of the column, and so on until two-fold titrations are completed. When the next-to-the-last well is mixed, take 60 μL of the 120 μL in this well and discard it. Leave the last well with 60 μL of DMSO/media diluent as a non-drug-containing control. Make 9 columns of titrated drug, enough for triplicate wells each for 1) VEGF (obtained from Pepro Tech Inc., catalogue no. 100-200, 2) endothelial cell growth factor (ECGF) (also known as acidic fibroblast growth factor, or aFGF) (obtained from Boehringer Mannheim Biochemica, catalogue no. 1439 600); or, 3) human PDGF B/B (1276-956, Boehringer Mannheim, Germany) and assay media control. ECGF comes as a preparation with sodium heparin.
2. Transfer 50 μL/well of the drug dilutions to the 96-well assay plates containing the 0.8-1.0×10^4 cells/100 μL/well of the HUV-EC-C cells from day 0. and incubate ˜2 h at 37° C., 5% CO2.
3. […] As with the drugs, the growth factor concentrations are 4× the desired final concentration. Use the assay media from day 0 step 2 to make the concentrations of growth factors. Incubate approximately 24 hours at 37° C., 5% CO2. Each well will have 50 μL drug dilution, 50 μL growth factor or media, and 100 μL cells, =200 μL/well total. Thus the 4× concentrations of drugs and growth factors become 1× once everything has been added to the wells.
1. Add ^3H-thymidine (Amersham; catalogue no. TRK-686) at 1 μCi/well (10 μL/well Of 100 μCi/mi solution made up in RPMI media +10% heat-inactivated fetal bovine serum) and incubate μ24 h at 37° C., 5% CO2. RPMI was obtained from Gibco BRL, catalogue no. 11875-051.
1. Freeze plates overnight at […]
1. Thaw plates and harvest with a 96-well plate harvester (Tomtec Harvester 96®) onto filter mats (Wallac; catalogue no. 1205-401); read counts on a Wallac Betaplate™ liquid scintillation counter.
The IC50 values were measured for several of the compounds of the invention.

Read-outs that look alike come from different tables or passages of the source. A value given as a limit tells only on which side of the number the result lay.

Consider `O=C(O)CCc1c(C=C2C(=O)Nc3ccccc32)[nH]c2c1CCCC2` [IN-001, 3-[2-(2-Oxo-1,2-dihydro-indol-3-ylidenemethyl)-4,5,6,7-tetrahydro-1H-indol-3-yl]-propionic acid], for which the IC50 (commonly the point on the concentration scale where inhibition reaches its midpoint) in test [1] was 95.4 µM; in test [2], 18.2 µM; in test [3] (NIH3T3, PDGF 3.8 nM), 2.9 µM; with HUV-EC-C cells; VEGF (Homo sapiens), 1.9 nM.

For the compound `O=C(O)CCc1c(C=C2C(=O)Nc3ccc(Cl)cc32)[nH]c2c1CCCC2` [IN-002, 3-[2-(5-Chloro-2-oxo-1,2-dihydro-indol-3-ylidenemethyl)-4,5.6,7-tetrahydro-1H-indol-3-yl]-propionic acid], the half-inhibitory concentration (IC50) in test [1] (EGF-induced) was determined as 83.5 µM; in test [2] (FGF-induced), 23.6 µM; in test [3] (PDGF […]), 1.1 µM; in the test with HUV-EC-C cells; VEGF, 0.04 nM.

As for `O=C(O)CCc1c(C=C2C(=O)Nc3ccc(Br)cc32)[nH]c2c1CCCC2` [IN-003, 3-[2-(5-Bromo-2-oxo-1,2-dihydro-indol-3-ylidenemethyl)-4,5,6,7-tetrahydro-1H-indol-3-yl]-propionic acid], the concentration for half-maximal inhibition (IC50) stood at 78.5 µM in test [1]; 15.7 µM in test [2]; 1.4 µM in test [3] (NIH3T3, PDGF 3.8 nM); 0.3 nM in the test on HUV-EC-C cells; VEGF (Homo sapiens).

As for `Cc1cccc2c1C(=Cc1[nH]c3c(c1CCC(=O)O)CCCC3)C(=O)N2` [IN-004, 3-[2-(4-Methyl-2-oxo-1,2-dihydro-indol-3-ylidenemethyl)-4,5,6,7-tetrahydro-1H-indol-3-yl]-propionic acid], the half-inhibitory concentration (IC50) was determined as 52 µM in test [1]; 26.7 µM in test [2]; 13.5 µM in test [3] (NIH3T3, PDGF 3.8 nM); 0.94 nM in the test with HUV-EC-C cells; VEGF (Homo sapiens).

Turning to `Cc1ccc2c(c1)C(=Cc1[nH]c3c(c1CCC(=O)O)CCCC3)C(=O)N2` [IN-005, 3-[2-(5-Methyl-2-oxo-1,2-dihydro-indol-3-ylidenemethyl)-4,5,6,7-tetrahydro-1H-indol-3-yl]-propionic acid], the IC50 in test [1] was determined as 61.5 µM; in test [2], 30.1 µM; in test [3] (NIH3T3, PDGF 3.8 nM), 14.2 µM; in the test on HUV-EC-C cells; VEGF (Homo sapiens), 1 nM.

With `COc1ccc2c(c1)NC(=O)C2=Cc1[nH]c2c(c1CCC(=O)O)CCCC2` [IN-007, 3-[2-(6-Methoxy-2-oxo-1,2-dihydro-indol-3-ylidenemethyl)-4,5,6,7-tetrahydro-1H-indol-3-yl]-propionic acid], the IC50 in test [1] is > 100 µM; in test [2], 42.1 µM; in test [3] (NIH3T3, PDGF 3.8 nM), 3 µM; in the test with HUV-EC-C cells; VEGF (Homo sapiens), 20 nM.

For `CN(C)C(=O)CCc1c(C=C2C(=O)Nc3ccccc32)[nH]c2c1CCCC2` [IN-008, N,N-Dimethyl-3-[2-(2-oxo-1,2-dihydro-indol-3-ylidenemethyl)-4,5,6,7-tetrahydro-1H-indol-3-yl]-propionamide], the IC50 is > 50 µM in test [1]; > 50 µM in test [2]; 4.9 µM in test [3] (NIH3T3, PDGF 3.8 nM); < 3 nM in the test with HUV-EC-C cells; VEGF (Homo sapiens).

`CN(C)CCCc1c(C=C2C(=O)Nc3ccccc32)[nH]c2c1CCCC2` [IN-009, 3-[3-(3-Dimethylamino-propyl)-4,5,6,7-tetrahydro-1H-indol-2-ylmethylene]-1,3-dihydro-indol-2-one]: the IC50 in test [1] is > 50 µM; in test [2], > 50 µM; in test [3] (NIH3T3, PDGF 3.8 nM), 4.2 µM; in the test on HUV-EC-C cells; VEGF (Homo sapiens), 290 nM.

For the compound `NC(=O)CCc1c(C=C2C(=O)Nc3ccccc32)[nH]c2c1CCCC2` [IN-010, 3-[2-(2-Oxo-1,2-dihydro-indol-3-ylidenemethyl)-4,5,6,7-tetrahydro-1H-indol-3-yl]-propionamide], the IC50 in test [1] was 95.4 µM; in test [2], > 50 µM; in test [3] (NIH3T3, PDGF 3.8 nM), 3.5 µM; in the test with HUV-EC-C cells; VEGF (Homo sapiens) it was < 30 nM.

For `O=C1Nc2ccccc2C1=Cc1[nH]c2c(c1CCC(=O)N1CCOCC1)CCCC2` [IN-011, 3-[3-(3-Morpholin-4-yl-3-oxo-propyl)-4,5 6,7-tetrahydro-1H-indol-2-ylmethylene]-1,3-dihydro-indol-2-one], the IC50 in test [1] was 83.5 µM; in test [2], > 50 µM; in test [3] (NIH3T3, PDGF 3.8 nM) it was 8.6 µM; in the test with HUV-EC-C cells; VEGF (Homo sapiens) it was 220 nM.

As to `CNC(=O)CCc1c(C=C2C(=O)Nc3ccccc32)[nH]c2c1CCCC2` [IN-012, N-Methyl-3-[2-(2-oxo-1,2-dihydro-indol-3-ylidenemethyl)-4,5,6,7-tetrahydro-1H-indol-3-yl]-propionamide], the IC50 is 78.5 µM in test [1]; > 50 µM in test [2]; 3.9 µM in test [3] (NIH3T3, PDGF 3.8 nM); < 30 nM in the test with HUV-EC-C cells; VEGF (Homo sapiens).

Take `O=C(CCc1c(C=C2C(=O)Nc3ccccc32)[nH]c2c1CCCC2)NCCN1CCOCC1` [IN-013, N-(2-Morpholin-4-yl-ethyl)-3-[2-(2-oxo-1,2-dihydro-indol-3-ylidenemethyl)-4,5,6,7-tetrahydro-1H-indol-3-yl]-propionamide]: the concentration for half-maximal inhibition (IC50) was 52 µM in test [1]; > 50 µM in test [2]; 5.2 µM in test [3] (NIH3T3, PDGF 3.8 nM); < 30 nM in the test with HUV-EC-C cells; VEGF (Homo sapiens).

In the case of `Cc1c[nH]c(C=C2C(=O)Nc3ccccc32)c1CCC(=O)O` [IN-026, 3-[4-Methyl-2-(2-oxo-1,2-dihydro-indol-3-ylidenemethyl)-1H-pyrrol-3-yl]-propionic acid], the half-inhibitory concentration (IC50) in test [1] was > 100 µM; in test [2], 25 µM; in test [3] (NIH3T3, PDGF 3.8 nM) it was 20 µM.

With `Cc1c[nH]c(C=C2C(=O)Nc3ccc(Cl)cc32)c1CCC(=O)O` [IN-027, 3-[2-(5-Chloro-2-oxo-1,2-dihydro-indol-3-ylidenemethyl)-4-methyl-1H-pyrrol-3-yl]-propionic acid], the half-inhibitory concentration (IC50) was > 50 µM in test [1] and < 70 nM with HUV-EC-C cells; VEGF (Homo sapiens).
